According to patent US12543736B2, “Herbicidal compositions comprising mesotrione” (BASF SE, priority 2024, dated 2026):

Tests used:
Assay type in all cases: in vivo
Alopercurus myosuroides = assay: Example 1 post-emergence greenhouse trial, ALOMY; conditions: growth stage 13, 21 DAT, g ai/ha: A-1 4, B 62.5
Description: In the examples below, using the method of S. R. Colby (1967) “Calculating synergistic and antagonistic responses of herbicide combinations”, Weeds 15, p. 22ff., the value E, which is expected if the activity of the individual active compounds is only additive, was calculated: [formula] • where • X=percent activity using active herbicide A at an application rate a; • Y=percent activity using active herbicide B (e.g. mesotrione) at an application rate b; • E=expected activity (in %) by A+B at application rates a+b. If the value found experimentally is higher than the value E calculated according to Colby, a synergistic effect is present. The culture containers used were plastic pots containing loamy sand with approximately 3.0% of humus as substrate. The seeds of the test plants were sown separately for each species. For the post-emergence treatment, the test plants were grown to a plant height of from 3 to 15 cm, depending on the plant habit, and only then treated with the active compounds which had been suspended or emulsified in water. To this end, the test plants were either sown directly, and grown in the same containers, or they were first grown separately as seedlings and transplanted into the test containers a few days prior to treatment. […] During this time, the plants were tended and their response to the individual treatments was evaluated. […]

Commelina benghalensis = assay: Example 4 post-emergence application A-1, B and C-19, COMBE; conditions: growth stage 13, 21 DAT, g ai/ha: A-1 1, B 50, C-19 30
Description: (§1) In the examples below, using the method of S. R. Colby (1967) “Calculating synergistic and antagonistic responses of herbicide combinations”, Weeds 15, p. 22ff., the value E, which is expected if the activity of the individual active compounds is only additive, was calculated:
(§2) [formula] • where • X=percent activity using active herbicide A at an application rate a; • Y=percent activity using active herbicide B (e.g. mesotrione) at an application rate b; • E=expected activity (in %) by A+B at application rates a+b.
(§3) If the value found experimentally is higher than the value E calculated according to Colby, a synergistic effect is present.
(§4) Evaluation was carried out using a scale from 0 to 100. 100 means no emergence of the plants, or complete destruction of at least the above-ground parts, and 0 means no damage or normal course of growth. A good herbicidal activity is given at values of at least 70, and very good herbicidal activity is given at values of at least 85.
(§5) Post-Emergence Application of Herbicide A-1 (A-1), Mesotrione (B) and Pyroxasulfone (C-19)
(§6) Herbicide A-1 (342 g/l), mesotrione (100 g/l) and pyroxasulfone (500 g/l) were, together with addition of 0.5 v/v % MSO (methylated sed oil) as adjuvant, formulated in water as distribution medium (water volume 200 l/ha) and sprayed with commercial flat fan nozzles.

Eleusine indica = assay: Example 1 post-emergence greenhouse trial, ELEIN; conditions: growth stage 14, 21 DAT
Description: In the examples below, using the method of S. R. Colby (1967) “Calculating synergistic and antagonistic responses of herbicide combinations”, Weeds 15, p. 22ff., the value E, which is expected if the activity of the individual active compounds is only additive, was calculated: [formula] • where • X=percent activity using active herbicide A at an application rate a; • Y=percent activity using active herbicide B (e.g. mesotrione) at an application rate b; • E=expected activity (in %) by A+B at application rates a+b. If the value found experimentally is higher than the value E calculated according to Colby, a synergistic effect is present. The culture containers used were plastic pots containing loamy sand with approximately 3.0% of humus as substrate. The seeds of the test plants were sown separately for each species. For the post-emergence treatment, the test plants were grown to a plant height of from 3 to 15 cm, depending on the plant habit, and only then treated with the active compounds which had been suspended or emulsified in water. To this end, the test plants were either sown directly, and grown in the same containers, or they were first grown separately as seedlings and transplanted into the test containers a few days prior to treatment. Depending on the species, the plants were kept at 10-25° C. and 20-35° C., respectively. The test period extended over 2 to 4 weeks. During this time, the plants were tended and their response to the individual treatments was evaluated. Evaluation was carried out using a scale from 0 to 100. 100 means no emergence of the plants, or complete destruction of at least the above-ground parts, and 0 means no damage or normal course of growth. A good herbicidal activity is given at values of at least 70, and very good herbicidal activity is given at values of at least 85. Post-Emergence Application of Herbicide A-1 (A-1) and Mesotrione (B) in Greenhouse Trials Herbicide A-1 (50 g/l) and mesotrione (480 g/l) were, together with addition of 1 v/v % MSO (methylated sed oil) as adjuvant, formulated in water as distribution medium (water volume 200 l/ha) and sprayed with commercial flat fan nozzles.

Echinochloa crus-galli = assay: Example 3 post-emergence field trial, ECHCG; conditions: height 15-20 cm
Description: (§7) In the examples below, using the method of S. R. Colby (1967) “Calculating synergistic and antagonistic responses of herbicide combinations”, Weeds 15, p. 22ff., the value E, which is expected if the activity of the individual active compounds is only additive, was calculated: [formula] • where • X=percent activity using active herbicide A at an application rate a; • Y=percent activity using active herbicide B (e.g. mesotrione) at an application rate b; • E=expected activity (in %) by A+B at application rates a+b. If the value found experimentally is higher than the value E calculated according to Colby, a synergistic effect is present. Evaluation was carried out using a scale from 0 to 100. 100 means no emergence of the plants, or complete destruction of at least the above-ground parts, and 0 means no damage or normal course of growth. A good herbicidal activity is given at values of at least 70, and very good herbicidal activity is given at values of at least 85. Post-Emergence Application of Herbicide A-1 (A-1) and Mesotrione (B) in Field Trials Herbicide A-1 (342 g/l) and mesotrione (100 g/l) were, together with addition of 0.5 v/v % MSO (methylated sed oil) as adjuvant, formulated in water as distribution medium (water volume 200 l/ha) and sprayed with commercial flat fan nozzles.

Zea mays = assay: Example 4 post-emergence application A-1, B and C-19, ZEAMX; conditions: growth stage 12, 21 DAT, g ai/ha: A-1 2, B 50, C-19 30
Description: as §1, §2, §3, §4, §5, §6

Lolium multiflorum = assay: Example 3 post-emergence field trial, LOLMU; conditions: height 20-25 cm
Description: as §7

[1] = 7 DAT, g ai/ha: A-1 12.5, B 105
[2] = 7 DAT, g ai/ha: A-1 12.5, B 210
[3] = 21 DAT, g ai/ha: A-1 12.5, B 105
[4] = 28 DAT, g ai/ha: A-1 12.5, B 105

| SMILES | % herbicidal activity (Alopercurus myosuroides) [%] | % herbicidal activity (Commelina benghalensis) [%] | % herbicidal activity (Eleusine indica; g ai/ha: A-1 2, B 62.5) [%] | % herbicidal activity (Eleusine indica; g ai/ha: A-1 4, B 62.5) [%] | % herbicidal activity (Echinochloa crus-galli; [1]) [%] | % herbicidal activity (Echinochloa crus-galli; [2]) [%] | % herbicidal activity (Echinochloa crus-galli; 7 DAT, g ai/ha: A-1 18, B 105) [%] | % herbicidal activity (Echinochloa crus-galli; 7 DAT, g ai/ha: A-1 18, B 210) [%] | % herbicidal activity (Echinochloa crus-galli; [3]) [%] | % herbicidal activity (Echinochloa crus-galli; 21 DAT, g ai/ha: A-1 18, B 105) [%] | % herbicidal activity (Echinochloa crus-galli; [4]) [%] | % herbicidal activity (Echinochloa crus-galli; 28 DAT, g ai/ha: A-1 18, B 105) [%] | % herbicidal activity (Zea mays) [%] | % herbicidal activity (Lolium multiflorum; [1]) [%] | % herbicidal activity (Lolium multiflorum; [2]) [%] | % herbicidal activity (Lolium multiflorum; 7 DAT, g ai/ha: A-1 18, B 105) [%] | % herbicidal activity (Lolium multiflorum; 7 DAT, g ai/ha: A-1 18, B 210) [%] | % herbicidal activity (Lolium multiflorum; 21 DAT, g ai/ha: A-1 18, B 210) [%] | % herbicidal activity (Lolium multiflorum; 28 DAT, g ai/ha: A-1 18, B 210) [%] |
| --- | --- | --- | --- | --- | --- | --- | --- | --- | --- | --- | --- | --- | --- | --- | --- | --- | --- | --- | --- |
| CCOC(=O)COc1ccccc1Oc1nc(-n2c(=O)cc(C(F)(F)F)n(C)c2=O)c(F)cc1Cl [A-1, ethyl 2-[2-[[3-chloro-5-fluoro-6-[3-methyl-2,6-dioxo-4-(trifluoromethyl)pyrimidin-1-yl]-2-pyridyl]oxy]phenoxy]acetate] | 85 | 80 | 95 | 95 | 30 | 20 | 30 | 30 | 30 | 30 | 20 | 30 | 40 | 60 | 60 | 65 | 70 | 40 | 40 |
| CS(=O)(=O)c1ccc(C(=O)C2C(=O)CCCC2=O)c([N+](=O)[O-])c1 [B, mesotrione] | 0 | 90 | 50 | 50 | 50 | 50 | 50 | 50 | 60 | 60 | 50 | 50 | 0 | 30 | 30 | 30 | 30 | 30 | 30 |
